# Results from patent publication US11046696B2, “Fused pyrimidine compound or salt thereof” (TAIHO PHARMACEUTICAL CO., LTD., priority 2016, dated 2021).
# Assay: Evaluation of stability in liver microsome
# Settings: mouse liver microsome, 1 μM, 37° C. for 30 minutes
# Procedure: Solutions of the test compounds in DMSO/acetonitrile (the final concentration of each test compound was 1 μM, the final concentration of DMSO was 0.01%, and the final concentration of acetonitrile was 1%) were individually added to a liver microsome mixture solution (mouse liver microsome with a final concentration of 0.25 mg/mL, a potassium phosphate buffer with a final concentration of 100 mM, and magnesium chloride with a final concentration of 3 mM), and each mixture was pre-incubated at 37° C. for 5 minutes. […] After incubation at 37° C. for 30 minutes, a double amount of ethanol was added thereto to terminate the reaction, thereby obtaining post-reaction samples. A double amount of ethanol was added to each of the remaining mixture solutions, and a NADPH-generating system was further added thereto, thereby obtaining pre-reaction samples. The pre-reaction samples and post-reaction samples were centrifuged at 2000×g, and their supernatant was filtered through a glass filter. Each filtrate was then introduced into LC-MS/MS, and MS/MS peaks of the test compounds were detected. From the ratio of the post-reaction MS/MS peak to the pre-reaction MS/MS peak of the test compounds, the percentage of the remaining test compounds (remaining %) was calculated.
row,SMILES,Remaining (%)
1,"CC(C)(C)n1cc(C(=O)Nc2ccc(-c3cc[nH]n3)cc2)c2c(N)ncnc21 [Example 80, N-(4-(1H-pyrazol-3-yl)phenyl)-4-amino-7-(tert-butyl)-7H-pyrrolo[2,3-d]pyrimidine-5-carboxamide]",50%
2,"COCc1ccc(NC(=O)c2cn(C(C)(C)CF)c3ncnc(N)c23)cc1F [Example 41, 4-amino-7-(1-fluoro-2-methylpropan-2-yl)-N-(3-fluoro-4-(methoxymethyl)phenyl)-7H-pyrrolo[2,3-d]pyrimidine-5-carboxamide]",56%
3,"COCc1ccc(NC(=O)c2cn(C3(C)CC3)c3ncnc(N)c23)cc1 [Example 36, 4-amino-N-(4-(methoxymethyl)phenyl)-7-(1-methylcyclopropyl)-7H-pyrrolo[2,3-d]pyrimidine-5-carboxamide]",73%
4,"CCn1cc(C#Cc2c(C(=O)Nc3ccc(COC)cc3)c3c(N)ncnc3n2C2(C)CC2)cn1 [Example 118, 4-amino-6-((1-ethyl-1H-pyrazol-4-yl)ethynyl)-N-(4-(methoxymethyl)phenyl)-7-(1-methylcyclopropyl)-7H-pyrrolo[2,3-d]pyrimidine-5-carboxamide]",73%
5,"COCc1ccc(NC(=O)c2cn(C(C)(C)C)c3ncnc(N)c23)c(OC)c1 [Example 33, 4-amino-7-(tert-butyl)-N-(2-methoxy-4-(methoxymethyl)phenyl)-7H-pyrrolo[2,3-d]pyrimidine-5-carboxamide]",57%
6,"COCc1ccc(NC(=O)c2c(C#CCN3CC[S+]([O-])CC3)n(C3(C)CC3)c3ncnc(N)c23)cc1 [Example 178, 4-amino-N-(4-(methoxymethyl)phenyl)-7-(1-methylcyclopropyl)-6-(3-(1-oxidethiomorpholino)prop-1-yn-1-yl)-7H-pyrrolo[2,3-d]pyrimidine-5-carboxamide]",88%
7,"COCc1ccc(NC(=O)c2cn(C3(C(F)F)CC3)c3ncnc(N)c23)cc1 [Example 46, 4-amino-7-(1-(difluoromethyl)cyclopropyl)-N-(4-(methoxymethyl)phenyl)-7H-pyrrolo[2,3-d]pyrimidine-5-carboxamide]",65%
8,"COCc1ccc(NC(=O)c2c(-c3cccnc3)n(C3(C)CC3)c3ncnc(N)c23)cc1 [Example 61, 4-amino-N-(4-(methoxymethyl)phenyl)-7-(1-methylcyclopropyl)-6-(pyridin-3-yl)-7H-pyrrolo[2,3-d]pyrimidine-5-carboxamide]",81%
9,"COCc1ccc(NC(=O)c2c(C#CCCN3CCOCC3)n(C3(C)CC3)c3ncnc(N)c23)cc1 [Example 187, 4-amino-N-(4-(methoxymethyl)phenyl)-7-(1-methylcyclopropyl)-6-(4-morpholinobut-1-yn-1-yl)-7H-pyrrolo[2,3-d]pyrimidine-5-carboxamide]",68%
10,"COCc1ccc(NC(=O)c2c(-c3cncnc3)n(C3(C)CC3)c3ncnc(N)c23)cc1 [Example 194, 4-amino-N-(4-(methoxymethyl)phenyl)-7-(1-methylcyclopropyl)-6-(pyrimidin-5-yl)-7H-pyrrolo[2,3-d]pyrimidine-5-carboxamide]",67%
11,"COCc1ccc(NC(=O)c2c(C#Cc3csc(C)n3)n(C3(C)CC3)c3ncnc(N)c23)cc1 [Example 126, 4-amino-N-(4-(methoxymethyl)phenyl)-7-(1-methylcyclopropyl)-6-((2-methylthiazol-4-yl)ethynyl)-7H-pyrrolo[2,3-d]pyrimidine-5-carboxamide]",69%
12,"COCc1ccc(NC(=O)c2c(-c3ccccc3)n(C3(C)CC3)c3ncnc(N)c23)cc1 [Example 154, 4-amino-N-(4-(methoxymethyl)phenyl)-7-(1-methylcyclopropyl)-6-phenyl-7H-pyrrolo[2,3-d]pyrimidine-5-carboxamide]",50%
13,"COCc1ccc(NC(=O)c2c(C#CCC(C)O)n(C3(C)CC3)c3ncnc(N)c23)cc1 (stereo not drawn) [Example 188, 4-amino-6-(4-hydroxypent-1-yn-1-yl)-N-(4-(methoxymethyl)phenyl)-7-(1-methylcyclopropyl)-7H-pyrrolo[2,3-d]pyrimidine-5-carboxamide]",68%
14,"COCc1ccc(NC(=O)c2c(OC[C@@H](C)OC)n(C3(C)CC3)c3ncnc(N)c23)cc1 [Example 96, (R)-4-amino-N-(4-(methoxymethyl)phenyl)-6-(2-methoxypropoxy)-7-(1-methylcyclopropyl)-7H-pyrrolo[2,3-d]pyrimidine-5-carboxamide]",71%
15,"COCc1ccc(NC(=O)c2c(C#CCN3CCCC3)n(C3(C)CC3)c3ncnc(N)c23)cc1 [Example 88, 4-amino-N-[4-(methoxymethyl)phenyl]-7-(1-methylcyclopropyl)-6-(3-(pyrrolidin-1-yl)prop-1-yn-1-yl)-7H-pyrrolo[2,3-d]pyrimidine-5-carboxamide]",59%
16,"COCc1ccc(NC(=O)c2c(C#Cc3cnn(C)c3C)n(C3(C)CC3)c3ncnc(N)c23)cc1 [Example 182, 4-amino-6-((1,5-dimethyl-1H-pyrazol-4-yl)ethynyl)-N-(4-(methoxymethyl)phenyl)-7-(1-methylcyclopropyl)-7H-pyrrolo[2,3-d]pyrimidine-5-carboxamide]",61%
17,"COCc1ccc(NC(=O)c2c(C#CCC3NC(=O)NC3=O)n(C3(C)CC3)c3ncnc(N)c23)cc1 (stereo not drawn) [Example 156, 4-amino-6-(3-(2,5-dioxoimidazolidin-4-yl)prop-1-yn-1-yl)-N-(4-(methoxymethyl)phenyl)-7-(1-methylcyclopropyl)-7H-pyrrolo[2,3-d]pyrimidine-5-carboxamide]",67%
18,"COCc1ccc(NC(=O)c2c(C(C)=O)n(C3(C)CC3)c3ncnc(N)c23)cc1 [Example 64, 6-acetyl-4-amino-N-(4-(methoxymethyl)phenyl)-7-(1-methylcyclopropyl)-7H-pyrrolo[2,3-d]pyrimidine-5-carboxamide]",89%
19,"COCc1ccc(NC(=O)c2c(OCC3CCCCO3)n(C3(C)CC3)c3ncnc(N)c23)cc1 (stereo not drawn) [Example 102, 4-amino-N-(4-(methoxymethyl)phenyl)-7-(1-methylcyclopropyl)-6-((tetrahydro-2H-pyran-2-yl)methoxy)-7H-pyrrolo[2,3-d]pyrimidine-5-carboxamide]",60%
20,"COCc1ccc(NC(=O)c2c(-c3ccc(F)nc3)n(C3(C)CC3)c3ncnc(N)c23)cc1 [Example 190, 4-amino-6-(6-fluoropyridin-3-yl)-N-(4-(methoxymethyl)phenyl)-7-(1-methylcyclopropyl)-7H-pyrrolo[2,3-d]pyrimidine-5-carboxamide]",58%
21,"COCCN(C)CC#Cc1c(C(=O)Nc2ccc(COC)cc2)c2c(N)ncnc2n1C1(C)CC1 [Example 197, 4-amino-6-(3-((2-methoxyethyl)(methyl)amino)prop-1-yn-1-yl)-N-(4-(methoxymethyl)phenyl)-7-(1-methylcyclopropyl)-7H-pyrrolo[2,3-d]pyrimidine-5-carboxamide]",52%
22,"COCc1ccc(NC(=O)c2c(C#Cc3ccc(N)nc3)n(C3(C)CC3)c3ncnc(N)c23)cc1 [Example 155, 4-amino-6-((6-aminopyridin-3-yl)ethynyl)-N-(4-(methoxymethyl)phenyl)-7-(1-methylcyclopropyl)-7H-pyrrolo[2,3-d]pyrimidine-5-carboxamide]",64%
23,"COCc1ccc(NC(=O)c2c(C#Cc3ccc[nH]3)n(C3(C)CC3)c3ncnc(N)c23)cc1 [Example 161, 6-((1H-pyrrol-2-yl)ethynyl)-4-amino-N-(4-(methoxymethyl)phenyl)-7-(1-methylcyclopropyl)-7H-pyrrolo[2,3-d]pyrimidine-5-carboxamide]",68%
24,"COCc1ccc(NC(=O)c2c(C#Cc3cncnc3)n(C3(C)CC3)c3ncnc(N)c23)cc1 [Example 196, 4-amino-N-(4-(methoxymethyl)phenyl)-7-(1-methylcyclopropyl)-6-(pyrimidin-5-ylethynyl)-7H-pyrrolo[2,3-d]pyrimidine-5-carboxamide]",53%
25,"C=C(C)c1c(C(=O)Nc2ccc(COC)cc2)c2c(N)ncnc2n1C1(C)CC1 [Example 149, 4-amino-N-(4-(methoxymethyl)phenyl)-7-(1-methylcyclopropyl)-6-(prop-1-en-2-yl)-7H-pyrrolo[2,3-d]pyrimidine-5-carboxamide]",62%
26,"COCc1ccc(NC(=O)c2cn(C(C)(C)C)c3ncnc(N)c23)cc1 [Example 2, 4-amino-7-(tert-butyl)-N-(4-(methoxymethyl)phenyl)-7H-pyrrolo[2,3-d]pyrimidine-5-carboxamide]",64%
27,"COCc1ccc(NC(=O)c2c(C#Cc3cnc[nH]3)n(C3(C)CC3)c3ncnc(N)c23)cc1 [Example 191, 6-((1H-imidazol-5-yl)ethynyl)-4-amino-N-(4-(methoxymethyl)phenyl)-7-(1-methylcyclopropyl)-7H-pyrrolo[2,3-d]pyrimidine-5-carboxamide]",53%
28,"COCc1ccc(NC(=O)c2c(C#CC(C)(C)O)n(C3(C)CC3)c3ncnc(N)c23)cc1 [Example 174, 4-amino-6-(3-hydroxy-3-methylbut-1-yn-1-yl)-N-(4-(methoxymethyl)phenyl)-7-(1-methylcyclopropyl)-7H-pyrrolo[2,3-d]pyrimidine-5-carboxamide]",72%
29,"COCc1ccc(NC(=O)c2c(-c3ccc(N4CCN(C)CC4)cc3)n(C3(C)CC3)c3ncnc(N)c23)cc1 [Example 171, 4-amino-N-(4-(methoxymethyl)phenyl)-7-(1-methylcyclopropyl)-6-(4-(4-methylpiperazin-1-yl)phenyl)-7H-pyrrolo[2,3-d]pyrimidine-5-carboxamide]",77%
30,"COCc1ccc(NC(=O)c2c(C#CCC3(O)COC3)n(C3(C)CC3)c3ncnc(N)c23)cc1 [Example 125, 4-amino-6-(3-(3-hydroxyoxetan-3-yl)prop-1-yn-1-yl)-N-(4-(methoxymethyl)phenyl)-7-(1-methylcyclopropyl)-7H-pyrrolo[2,3-d]pyrimidine-5-carboxamide]",74%
